Here are results for five compounds from patent US6100074A, “Mutant mono-oxygenase cytochrome P-450 cam” (BG plc, priority 1994, dated 2000).

The target of experiment [1] is T1, wild type P450cam (Pseudomonas putida, UniProt P00183). It is filed as binding. Particulars: wild-type.
The target of experiment [2] is T2, P-450cam mutant Y96A (Pseudomonas putida, UniProt P00183, Y97A). Briefly: Kapp (dissociation constant), substrate binding, Y96A. Particulars: for dissociation constants (Kapp) / affinity, in words: Y96A compared to wild-type. The method, then: (§1) Binding of potential substrates was investigated by spectroscopic methods.
(§2) ^a Values are the average of two independent measurements using the
(§3) method of Sligar (S. G. Sligar, Biochemistry, 1976, 15, 5399-5406). The
(§4) value of Kapp is strongly dependent on the concentration of K^+
(§5) in the buffer. At [K^+ ] > 150 mM. Kapp for camphor is 0.6 μM
(§6) for both wildtype and Y96A. Data in this table were determined at [K^
(§7) ] = 70 mM in phosphate buffer, pH 7.4, in order to avoid salting out of
(§8) substrates at higher ion concentrations.
(§9) ^b Saturation not reached.

Experiment [3] has as its target T1, wild type P450cam. Nature of the experiment: Kapp (dissociation constant), substrate binding, wild-type. Particulars: for Kd: WT, [K+] = 70 mM, phosphate buffer, pH 7.4, average of two measurements. The method, then:
as §1, §2, §3, §4, §5, §6, §7, §8, §9

The target of experiment [4] is T1, wild type P450cam. Briefly: biochemical. It is filed as binding. Particulars: Wild type; 200 μM DTT, 200 μM test compound, phosphate buffer; read-out: Vs DTT (percentage displacement of DTT bound to P-450).
Experiment [5] concerns the target T2, P-450cam mutant Y96A. It is filed as binding.
Experiment [6] has as its target T2, P-450cam mutant Y96A. Briefly: Gas chromatography of incubation products, Y96A. It is filed as biochemical. Particulars: 1 mM diphenylmethane, 1 μM P-450cam, 25° C., 30 min. The method, then:
The mutant protein was reconstituted with putidaredoxin and putidaredoxin reductase. Diphenylmethane (5) was added and the mixture was incubated with NADH and oxygen.
A solution containing 10 μM putidaredoxin, 2 μM putidaredoxin reductase, 1 μM cytochrome P-450cam mono-oyxgenase (wild-type or mutant) and 1 mM diphenylmethane in 100 mM KC1, 20 mM KH2 PO4 pH7.4 was preincubated at 25° C. in a shaker for 5 min. The enzymatic reaction was initiated by firstly adding NADH to a total concentration of 2 mM. Further four aliquots of NADH (to increase the NADH concentration by 1 mM each time) were added in intervals of 5 min and the reaction quenched after 30 min by adding 0.5 ml chloroform. The chloroform layer was analysed by gas chromatography.
Organic extracts of the crude incubation mixture were analysed by gas chromatography. […] The other aromatic hydroxylation products, the ortho and meta isomers, had different retention times. Further confirmation of the identity of the product as structure (6) was provided by mass spectrometry, which gave the correct mass peak at 184.

Experiment [7] deals with T2, P-450cam mutant Y96A. It is filed as biochemical. Also noted: key: Those substrates where oxidation has been demonstrated by means of NADH turnover are marked with a + sign.
Experiment [8] has as its target T2, P-450cam mutant Y96A. Nature of the experiment: Hydroxylation of camphor, Y96A. In kind it is biochemical. Particulars: Y96A compared to wild-type. From the text: This decrease in selectivity can be attributed to the loss of the hydrogen bond between Y96 and camphor.
In another experiment the test system is P-450cam. Particulars: wild-type; cited from earlier work.

On to `C1C2CC3CC1CC(C2)C3` [compound 3, adamantane], for which, on wild type P450cam [1], the “conversion of haem to high-spin form / shift in absorption spectrum, in words” value is reported as “fully converted the haem to the high-spin form”. On P-450cam mutant Y96A [2], the affinity, expressed as Kd, was 1.4 µM and the “dissociation constants (Kapp) / affinity, in words” value is reported as “reduced”. The compound also came in with a Kd at wild type P450cam [3] of 8.4 µM.

For `C1CC2CCC1C2` [compound 4, norbornane], at wild type P450cam [1], the “conversion of haem to high-spin form / shift in absorption spectrum, in words” value is given as “fully converted the haem to the high-spin form”. Further, at P-450cam mutant Y96A [2], the Kd stood at 92 µM and the “dissociation constants (Kapp) / affinity, in words” value is given as “reduced”. This compound returned a Kd on wild type P450cam [3] of 330 µM.

For the compound `c1ccc(Cc2ccccc2)cc1` [compound 5, diphenylmethane], the “conversion of haem to high-spin form / shift in absorption spectrum, in words” value at wild type P450cam [1] was “did not give a shift in the absorption spectrum”. The Kd was 73 µM at P-450cam mutant Y96A [2] and over 1500 µM at wild type P450cam [3]. Moreover, the “dissociation constants (Kapp) / affinity, in words” value at P-450cam mutant Y96A [2] is listed as “greatly enhanced affinity”. In addition, the inhibition at 200 µM at wild type P450cam [4] was 5%. Moreover, the “conversion of haem to high-spin form, in words” value at P-450cam mutant Y96A [5] is recorded as “partial conversion”. The “new product peak by GC (para-hydroxydiphenylmethane (6))” value at P-450cam mutant Y96A [6] was “Only one major new peak”. Further, the “binding, in words” value on wild type P450cam [3] (wild-type) was “bound poorly”. Further, the “NADH turnover?” value on P-450cam mutant Y96A [7] was “+”.

With `CC12CCC(CC1=O)C2(C)C` (stereo not shown) [compound 1, camphor], at P-450cam mutant Y96A [2], the Kd stood at 12 µM and the “dissociation constants (Kapp) / affinity, in words” value is reported as “increased”. In addition, the “hydroxylation selectivity, in words” value on P-450cam mutant Y96A [8] is “less selective”. Moreover, the “conversion of haem to high-spin form, in words” value at P-450cam mutant Y96A [5] is recorded as “not fully converted to the high-spin form”. At wild type P450cam [3], this compound displayed a Kd of 6.3 µM. Moreover, the “hydroxylation to 5-exo-hydroxycamphor, in words” value in the experiment on P-450cam is “regio- and stereo-selective hydroxylation”.

Turning to `O=C1C2CC3CC(C2)CC1C3` [compound 2, adamantanone], the “conversion of haem to high-spin form / shift in absorption spectrum, in words” value on wild type P450cam [1] was “fully converted the haem to the high-spin form”. For the same compound, at P-450cam mutant Y96A [2], binding was characterised by a dissociation constant (Kd) of 28 µM and the “dissociation constants (Kapp) / affinity, in words” value is given as “increased”. Besides, the “conversion of haem to high-spin form, in words” value on P-450cam mutant Y96A [5] is recorded as “not fully converted to the high-spin form”. Moreover, on wild type P450cam [3], the affinity, expressed as Kd, was 12 µM.

Broadly, the Kd is the free concentration of one partner at which half of the binding sites on the other are occupied at equilibrium, for simple one-to-one binding.
